For assay [1], the system named is Caco-2 Gut epithelial cells. To be noted: read-out: IC50 inhibition of cysteine uptake; GI epithelial cells. Here is the method: (§1) Pre-treatment in cells was performed for different time points for 30 min, 4, 24 and 48 h as described previously (Trivedi M., et al.; Mol. Pharm., 2014). Briefly, SH-SY5Y human neuronal cells and Caco-2 Gut epithelial cells were plated in six-well plates and were pretreated with drugs and incubated for various times prior to measuring uptake. Media were aspirated and cells were washed with 600 μL of HBSS at 37° C. Non-radioactive HBSS was aspirated, replaced with 600 μL of 37° C. HBSS containing [^35S]-cysteine, (1 μCi/1 mL), 10 μM unlabelled cysteine and 100 μM DTT, and the cells were incubated for 5 min. The [^35S]-cysteine/HBSS mixture was aspirated and treatment was terminated by two washes with ice-cold HBSS. Cells were then lysed with 600 μL of dH2O, scraped, collected in 1.5 mL microcentrifuge tubes, and sonicated for 10 s. 100 μL of each sample was aliquoted for protein assay. 200 μL of each sample (in triplicate) was aliquoted into scintillation vials with 4 mL of scintillation fluid, vortexed, and counted for radioactivity, normalized against protein content. […] Each * symbol in these Figures indicates a statistically significant difference (p<0.05) compared against the untreated control, and each #symbol indicates a statistically significant difference (p<0.005) compared against the untreated control.

For assay [2], the system named is SH-SY5Y human neuronal cells. On the procedure: as §1
Assay [3] deals with SH-SY5Y neuronal cells. As to the kind of experiment: Intracellular cysteine, GSH and methylation metabolites by HPLC. The assay is classed as cell-based, human. Here is the method: Briefly, SH-SY5Y neuronal cells were grown to confluence in α-MEM. Media was aspirated and the cells were washed twice with 1 mL of ice cold HBSS. HBSS was aspirated and 0.6 mL ice cold dH2O was added to the cells. The cells were scraped from the flask/dish and suspended in dH2O. The cell suspension was sonicated for 15 s on ice and 100 μL of the suspension was used to determine the protein content. The remaining lysate was added to a microcentrifuge tube and an equal volume of 0.4 N perchloric acid was added, followed by incubation on ice for 5 min. Samples were centrifuged at 5,000×g and the supernatant transferred to new microcentrifuge tubes. 100 μL of sample was added to a conical micro-autosampler vial and kept at 4° C. in the autosampler cooling tray. 10 μL of this sample was injected into the HPLC system.
The separation of redox and methylation pathway metabolites was accomplished using an Agilent Eclipse XDB-C8 analytical column (3×150 mm; 3.5 μm) and an Agilent Eclipse XDB-C8 (4.6×12.5 mm; 5 μm) guard column. Two mobile phases were used: Mobile Phase A was 0% acetonitrile, 25 mM sodium phosphate, 1.4 mM 1-octanesulfonic acid, adjusted to pH 2.65 with phosphoric acid. Mobile Phase B was 50% acetonitrile. The flow rate was initially set at 0.6 mL/min and a step gradient was used: 0-9 min 0% B, 9-19 min 50% B, 19-30 min 50% B. The column was then equilibrated with 5% B for 12 min prior to the next run. Temperature was maintained at 27° C. The electrochemical detector was an ESA CoulArray with BDD Analytical cell Model 5040 and the operating potential was set at 1500 mV. Sample concentrations were determined from the peak areas of metabolites using standard calibration curves and ESA-supplied HPLC software. Sample concentrations were normalised against protein content. In some cases samples were diluted in mobile phase as needed or up to 50 μl of sample was injected to assure that thiol levels were within the range of the standard curve.

Assay [4] relates to SH-SY5Y cells. As to the kind of experiment: Global DNA methylation by MBD-seq. It counts as cell-based, human. Particulars: after BCM-7 exposure. On the procedure: (§2) The changes in SAM/SAH could potentially affect global DNA methylation, influencing the genes involved in various functions. The global DNA methylation levels induced by BCM-7 were investigated using methyl-CpG binding domain (MBD) protein-enriched genome sequencing (MBD-seq) as described previously (Trivedi M., et al., Mol. Pharm. 2014), whereas mRNA translation microarray data was obtained using Agilent V3 microarray chip, from non-treated control SH-SY5Y cells and cells treated for 4 hours with 1 μM BCM-7.
Briefly, genomic DNA was extracted from samples with the Easy DNA kit (Invitrogen K1800-01) using the appropriate protocol for cell lines. Fragmentation was performed on Covaris S2 with the following settings: duty cycle 10%, intensity 5, 200 cycles per burst during 200 sec. Fragments were obtained having an average length of 200 bp. […] DNA with an input from 5-3 3 μg was analysed on the Agilent 2100 using a DNA 1000 chip. […] The concentrations of fragmented and captured DNA were determined on a Fluostar Optima plate reader with the Quant-IT PicoGreen dsDNA Assay Kit (Invitrogen P7589) at 480/520 nm. […]
The Illumina library amplification index protocol was used with the following alterations: 22 μl DNA was used and performed 21 cycles run. […] 1 μl was applied to a Agilent 2100 HS DNA chip and the concentration was determined by smear analysis on the Agilent 2100. […]

In assay [5] the test system is SH-SY5Y cells. As to the kind of experiment: Whole genome mRNA microarray. The assay is classed as cell-based, human. Particulars: FDR<0.1; for differentially expressed transcripts (DETs): cells treated for 4 hours. On the procedure: as §2
For whole genome microarray hybridisations, 500 ng of total RNA from each sample was labelled with fluorescent dye (Cy3; Amersham Biosciences Corp, Piscataway, NJ) using the Low RNA Input Linear Amplification Labelling kit (Agilent Technologies, Palo Alto, CA) following the manufacturer's protocol. The amount and quality of the fluorescently labelled cRNA was assessed using a NanoDrop ND-1000 spectrophotometer and an Agilent Bioanalyzer. According to manufacturer's specifications, […] of Cy3-labeled cRNA was hybridized to the Agilent Human Whole Genome Oligo Microarray (Agilent Technologies, Inc., Palo Alto, CA) for 17 hrs prior to washing and scanning. Data was extracted from scanned images using Feature Extraction Software (Agilent Technologies, Inc., Palo Alto, CA).
Transcripts included both genes and non-coding RNAs that were differentially methylated/transcribed.

The subject of assay [6] is colon myeloperoxidase (MPO) activity. Kind of assay: Colon MPO activity in rats fed A1/A2 diets. The assay is classed as in vivo, Wistar rats. On the procedure: (§3) Seventy two weaned (four week old) male Wistar rats were used. Following a 7-day acclimatisation period on a control diet, the rats were fed for either 12 or 60 hours with one of three diets: 100% A1 diet, 100% A2 diet, control diet (n=6 per treatment). The protein component of the diets were derived from skim milk (for the A1 and A2 diets) and on egg white (for the non-milk protein control diet), and were balanced for energy and macronutrient composition (see Table 1). Fifteen minutes before the end of the time period, rats received either naloxone or saline (control) via intra-peritoneal injection, and were then orally gavaged with a non-digestible tracer, titanium dioxide. Faecal and urine samples were collected at 7 time points over the following 24 hours, and stored at −20° C. (faecal) or −80° C. (urine) until they were analysed.
(§4) Colon tissue from the rats fed according to Example 1 was quantified for myeloperoxidase (MPO) activity based on an established method (Grisham, M. B., et al., Methods Enzymol., 1990, 186:729-742). Colon tissue (50 mg) was homogenised, partitioned via centrifugation, ruptured by ultrasonic probe and subjected to a freeze-thaw cycle. Endogenous MPO catalyses H2O2-dependent oxidation of 3,3′,5,5′-tetramethyl-benzidine substrate measured colourimetrically at 562 nm. […]

Assay [7] concerns jejunum myeloperoxidase (MPO) activity. Kind of assay: Jejunum MPO activity in rats fed A1/A2 diets. Particulars: on consumption of beta-casein A1. It counts as in vivo, Wistar rats. On the procedure:
as §3, §4
In this example, tissue samples taken from the jejunum were analysed. […]

The test system of assay [8] is colon tissue. Kind of assay: Intestinal histology of colon sections. It counts as in vivo, Wistar rats. Particulars: 60 hour naloxone group, A2-fed versus A1-fed rats, P<0.05. Here is the method: as §3
The procedure used for measuring change in morphology in the gastrointestinal tract of rats is based on histological evaluation of haemoxylin and eosin stained tissue sections under a light microscope (Knoch, B. et al., J. Nutrigenet. Nutrigenomics, 2009, 2(1):9-28 and Barnett, M. P., BMC Immunol., 2010, 11:39). This method was applied to sections derived from colon tissue of rats fed either the 100% A1 or 100% A2 diets to determine the effects of the beta-casein variants on intestinal inflammation.

Where [9] appears, read: neuronal cells, 30 min, 4 h, 24 h.

Where a SMILES comes first, the peptide text is derived from it.

A word on the IC50: it is the concentration needed to halve the response being measured.

With `CC[C@H](C)[C@H](NC(=O)[C@@H]1CCCN1C(=O)CNC(=O)[C@@H]1CCCN1C(=O)[C@H](Cc1ccccc1)NC(=O)[C@@H]1CCCN1C(=O)[C@@H](N)Cc1ccc(O)cc1)C(=O)O` [BCM-7, beta-casomorphin-7] (H-YPFPGPI-OH; N-terminus and C-terminus assumed), the IC50 in assay [1] was 15.9 nM. In addition, in assay [2] (blockade by selective μ-antagonist (CTAP), not by delta antagonist (NTI)), the “receptor mediation of cysteine uptake inhibition” value was “μ-opioid receptor mediated”. The “time at which inhibition of cysteine uptake was fully developed” value in assay [2] (neuronal cells and GI epithelial cells (FIG. 6)) is 30 min. Also, the 50% inhibitory concentration (IC50) in assay [2] (read-out: IC50 inhibition of cysteine uptake, neuronal cells) is 1.31 nM. For the same molecule, the “ratio of SAM/SAH (methylation capacity)” value in assay [3] (different time points) is reported as “affected”. Besides, in assay [3] (setting [9]), the GSH levels entry is on record as “time-dependent decreases” and the cysteine levels entry is reported as “time-dependent decreases”. Besides, the “GSH/GSSG ratio (redox status)” value in assay [3] (neuronal cells, over time) is reported as “decreased”. In assay [4], the “epigenetic status (DNA methylation) of cytokines such as NFkappaB and interleukins such as IL1” value is recorded as “altered”; the “epigenetic status of the MPO gene” value is given as “alters the epigenetic status”. In addition, in assay [5], the “DETs shared by both morphine and BCM-7” value stood at 501; the “differentially expressed transcripts (DETs)” value is reported as 1,467.

In the case of `CN1CC[C@]23c4c5ccc(O)c4O[C@H]2[C@@H](O)C=C[C@H]3[C@H]1C5` [morphine], in assay [3] (setting [9]), the cysteine levels result is “time-dependent decreases”. For the same molecule, in assay [5], the “DETs shared by both morphine and BCM-7” value is reported as 501; the “differentially expressed transcripts (DETs)” value is 7,592.

B1: beta-casein A1 (protein, UniProt P02666 16-224, looked up, variant P67H)
Beta-casein: RELEELNVPGEIVESLSSSEESITRINKKIEKFQSEEQQQTEDELQDKIHPFAQTQSLVYPFPGPIHNSLPQNIPPLTQTPVVVPPFLQPEVMGVSKVKEAMAPKHKEMPFPKYPVEPFTESQSLTLTDVENLHLPLPLLQSWMHQPHQPLPPTVMFPPQSVLSLSQSKVLPVPQKAVPYPQRDMPIQAFLLYQEPVLGPVRGPFPIIV
B1: the “colon MPO activity” value in assay [6] (beta-casein A1-fed rats compared to beta-casein A2-fed rats) was “increased”. Further, the “effect on colon MPO activity in rats treated with naloxone” value in assay [6] (rats treated with naloxone) was “not observed”. Also, the “inflammation in the small intestine (jejunum MPO)” value in assay [7] is recorded as “no observable increase”.

B2: beta-casein A2 (protein, UniProt P02666 16-224, looked up)
Beta-casein: RELEELNVPGEIVESLSSSEESITRINKKIEKFQSEEQQQTEDELQDKIHPFAQTQSLVYPFPGPIPNSLPQNIPPLTQTPVVVPPFLQPEVMGVSKVKEAMAPKHKEMPFPKYPVEPFTESQSLTLTDVENLHLPLPLLQSWMHQPHQPLPPTVMFPPQSVLSLSQSKVLPVPQKAVPYPQRDMPIQAFLLYQEPVLGPVRGPFPIIV
notes: any beta-casein having proline at position 67
Turning to B2, the histology score entry in assay [8] was “significantly higher score”.

These data come from patent US11911439B2, “Beta-casein A2 and prevention of inflammation of the bowel” (THE A2 MILK COMPANY LIMITED, priority 2013, dated 2024).
